The results in this text go back to US10696651B2, “Heterocyclic compound” (Takeda Pharmaceutical Company Limited, priority 2016, dated 2020).

Counter-ions that a name gives are not always drawn. Like-named read-outs stand apart in the source and are kept apart here.

Assay [1] concerns the target T1, human GCN2 full-length protein (Homo sapiens, UniProt Q9P2K8).
T1 construct: purchased Carna Biosciences, Inc
In words: GCN2 enzyme inhibition assay (LanthaScreen TR-FRET). Type of assay: biochemical. Particulars: GCN2 enzyme inhibitory activity at compound concentration of 3 μM, read-out: inhibitory rate. As to the method: GCN2 enzyme was preserved at -70° C. and used. The GCN2 enzyme inhibitory activity of the test compound was measured by the LanthaScreenTR-FRET (Time Resolved Fluorescence Resonance Energy Transfer) method (manufactured by ThermoFisher). […] Then, GCN2 enzyme solution diluted with the assay buffer was added by 2 μL to each well. The enzyme solution was not added to a part of the wells to give a control group. After incubation at room temperature for 1 hr, 570 μM ATP solution containing 390 nM […] physiological protein substrate (ThermoFisher) was added by 2 μL. After reaction at room temperature for 1 hr, TR-FRET Dilution Buffer (ThermoFisher) containing 4 nM Terbium-labeled anti-elF2alpha [[…]] antibody (ThermoFisher) dissolved therein was added by 2 μL to each well. After standing at room temperature for 1 hr, time decomposition fluorescence measurement was performed on platereader Envision (manufactured by PerkinElmer).
A general note: Time-resolved FRET reads energy transfer from a long-lived donor to a nearby acceptor.

Assay [2] relates to osteosarcoma cell line U-2-OS. The experiment in a line: In vitro cell proliferation inhibition assay (CellTiter-Glo, low amino acid media). Type of assay: cell-based. The note with it: Homo sapiens, U2OS, 72 h, cell proliferation inhibitory rate, McCoy's 5A low amino acid media. As to the method: A cell suspension (40 μL) (1000 cells/well) of osteosarcoma cell line U-2-OS obtained from ATCC (American Type Culture Collection) was seeded on a 384 plate using McCoy's 5A low amino acid media (amino acid content 25%). The seeded cells were incubated (37° C., 5% CO2) overnight to 24 hr at the longest. Each example compound was dissolved (10 mM) in DMSO, delivered to wells by using TECAN HP D300 (TECAN), and the plate was incubated for 72 hr (37° C., 5% CO2). A well without addition of compound was treated similarly as a control group. Celltiter-Glo (registered trade mark) Luminescent Cell Viability Assay reagent (Promega KK) equilibrated at room temperature was added (40 μL/well) to cells in each well before compound treatment (untreated group) and 72 hours after compound treatment. After incubation for 10 min, cell proliferation inhibitory rate was measured by the amount of ATP which is a cell viability marker. Luminescence of cells showing ATP amount was measured using ARVO MX (PerkinElmer). Based on the luminescence values of the untreatment group, the control group without addition of Example compound solution, and the treatment group with addition of Example compound, the cell proliferation inhibitory rate (%) of the test compound at a compound concentration of 100 nM was calculated by the following formula and the results thereof are shown in Tables 4-1, 4-2. Inhibitory rate (%)=(1−(luminescence value of treatment group−luminescence value of untreatment group)÷(luminescence value of control group−luminescence value of untreatment group))×100
For orientation: Cellular ATP, detected with luciferase, serves as a proxy for viable cell number.

T1 sequence (Q9P2K8 whole entry): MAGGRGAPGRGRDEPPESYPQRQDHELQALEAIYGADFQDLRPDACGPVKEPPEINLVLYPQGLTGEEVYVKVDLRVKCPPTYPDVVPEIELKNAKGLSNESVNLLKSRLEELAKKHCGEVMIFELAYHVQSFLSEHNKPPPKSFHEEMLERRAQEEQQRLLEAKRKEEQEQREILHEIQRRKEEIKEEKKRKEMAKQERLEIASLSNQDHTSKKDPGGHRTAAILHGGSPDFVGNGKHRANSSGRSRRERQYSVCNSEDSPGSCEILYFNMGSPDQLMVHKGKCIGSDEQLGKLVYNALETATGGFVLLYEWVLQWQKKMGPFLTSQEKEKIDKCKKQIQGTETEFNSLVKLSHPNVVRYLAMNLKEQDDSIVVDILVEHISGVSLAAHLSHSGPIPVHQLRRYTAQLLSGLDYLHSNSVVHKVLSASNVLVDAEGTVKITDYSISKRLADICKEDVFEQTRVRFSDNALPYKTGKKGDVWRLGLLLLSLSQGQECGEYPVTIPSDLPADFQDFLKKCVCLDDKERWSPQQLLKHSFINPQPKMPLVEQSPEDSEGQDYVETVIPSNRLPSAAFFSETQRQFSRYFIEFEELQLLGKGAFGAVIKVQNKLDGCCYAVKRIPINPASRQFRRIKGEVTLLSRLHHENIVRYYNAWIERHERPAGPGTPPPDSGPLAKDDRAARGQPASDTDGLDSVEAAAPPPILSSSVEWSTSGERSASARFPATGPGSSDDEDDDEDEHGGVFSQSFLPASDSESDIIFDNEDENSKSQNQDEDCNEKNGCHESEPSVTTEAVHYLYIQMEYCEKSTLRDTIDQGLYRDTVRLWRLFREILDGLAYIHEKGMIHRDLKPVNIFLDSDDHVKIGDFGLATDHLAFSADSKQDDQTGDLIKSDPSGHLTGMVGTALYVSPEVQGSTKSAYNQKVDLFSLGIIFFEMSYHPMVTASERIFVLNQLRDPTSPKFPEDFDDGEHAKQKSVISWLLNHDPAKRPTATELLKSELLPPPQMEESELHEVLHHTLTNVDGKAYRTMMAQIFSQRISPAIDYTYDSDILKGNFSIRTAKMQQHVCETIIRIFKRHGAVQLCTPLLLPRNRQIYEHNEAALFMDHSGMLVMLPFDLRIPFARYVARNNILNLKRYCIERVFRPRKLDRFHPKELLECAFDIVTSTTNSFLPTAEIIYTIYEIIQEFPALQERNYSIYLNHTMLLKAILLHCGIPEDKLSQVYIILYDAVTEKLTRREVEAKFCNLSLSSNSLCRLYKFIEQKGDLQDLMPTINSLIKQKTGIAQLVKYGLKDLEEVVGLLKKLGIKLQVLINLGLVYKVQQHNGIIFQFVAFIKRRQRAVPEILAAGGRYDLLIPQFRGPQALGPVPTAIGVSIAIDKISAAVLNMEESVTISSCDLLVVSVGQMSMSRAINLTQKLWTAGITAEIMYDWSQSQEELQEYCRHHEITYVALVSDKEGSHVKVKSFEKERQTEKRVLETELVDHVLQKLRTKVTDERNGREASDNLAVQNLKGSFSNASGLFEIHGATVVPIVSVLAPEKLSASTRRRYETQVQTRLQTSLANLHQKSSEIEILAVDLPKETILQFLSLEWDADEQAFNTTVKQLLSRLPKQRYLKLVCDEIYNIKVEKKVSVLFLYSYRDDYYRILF

As for `O=S(=O)(Nc1ccc(F)c(C#Cc2cnc3[nH]ncc3c2)c1F)c1cc(Cl)ccc1F` [Example 26, 5-chloro-N-(2,4-difluoro-3-(1H-pyrazolo[3,4-b]pyridin-5-ylethynyl)phenyl)-2-fluorobenzenesulfonamide TFA Salt], the inhibition at 3 µM in assay [1] (Table 3-1) stood at 99%. The inhibition at 0.1 µM in assay [2] (Table 4-1) was determined as 41%.
`Cc1ccc(Cl)cc1S(=O)(=O)Nc1ccc(F)c(C#Cc2cnc(N)c(C)n2)c1F` [Example 31, N-(3-((5-amino-6-methylpyrazin-2-yl)ethynyl)-2,4-difluorophenyl)-5-chloro-2-methylbenzenesulfonamide]: the inhibition at 3 µM in assay [1] (Table 3-1) was found to be 99%. In assay [2] (Table 4-1), this compound came in with an inhibition at 0.1 µM of 53%.
As to `COc1c(Cl)cc(Cl)cc1S(=O)(=O)Nc1ccc(F)c(C#Cc2cnc3[nH]ncc3c2)c1F` [Example 33, 3,5-dichloro-N-(2,4-difluoro-3-(1H-pyrazolo[3,4-b]pyridin-5-ylethynyl)phenyl)-2-methoxybenzenesulfonamide], the inhibition at 3 µM in assay [1] (Table 3-1) was found to be 98%. The compound also showed an inhibition at 0.1 µM in assay [2] (Table 4-1) of 40%.
As to `CNc1ncc(C#Cc2c(F)ccc(NS(=O)(=O)c3cc(Cl)ccc3Cl)c2F)cn1` [Example 37, 2,5-dichloro-N-(2,4-difluoro-3-((2-(methylamino)pyrimidin-5-yl)ethynyl)phenyl)benzenesulfonamide TFA Salt], the inhibition at 3 µM in assay [1] (Table 3-1) came to 98%. Also, the inhibition at 0.1 µM in assay [2] (Table 4-1) amounted to 45%.
The corresponding values for `O=S(=O)(Nc1ccc(F)c(C#Cc2cnc3[nH]ncc3c2)c1F)c1cccc(Cl)c1Cl` [Example 38, 2,3-dichloro-N-(2,4-difluoro-3-(1H-pyrazolo[3,4-b]pyridin-5-ylethynyl)phenyl)benzenesulfonamide TFA Salt] are 99% and 22%.
As to `COc1c(CO)cc(Cl)cc1S(=O)(=O)Nc1ccc(F)c(C#Cc2cnc(N)nc2)c1F` [Example 129, N-(3-((2-aminopyrimidin-5-yl)ethynyl)-2,4-difluorophenyl)-5-chloro-3-(hydroxymethyl)-2-methoxybenzenesulfonamide], in assay [1] (Table 3-2), the inhibition at 3 µM was found to be 99%. Moreover, in assay [2] (Table 4-2), the inhibition at 0.1 µM is 70%.
The corresponding values for `COc1c(CO)cc(Cl)cc1S(=O)(=O)Nc1ccc(F)c(C#Cc2cnc(N)nn2)c1F` [Example 130, N-(3-((3-amino-1,2,4-triazin-6-yl)ethynyl)-2,4-difluorophenyl)-5-chloro-3-(hydroxymethyl)-2-methoxybenzenesulfonamide] are 99% and 68%.
On to `CCNc1ncc(C#Cc2c(F)ccc(NS(=O)(=O)c3cc(Cl)cc(CO)c3OC)c2F)cn1` [Example 137, 5-chloro-N-(3-((2-(ethylamino)pyrimidin-5-yl)ethynyl)-2,4-difluorophenyl)-3-(hydroxymethyl)-2-methoxybenzenesulfonamide], for which the inhibition at 3 µM in assay [1] (Table 3-2) worked out at 99%. The same compound came in with an inhibition at 0.1 µM in assay [2] (Table 4-2) of 75%.
Regarding `COc1c(CO)cc(Cl)cc1S(=O)(=O)Nc1ccc(F)c(C#Cc2cnc(NC3CC3)nc2)c1F` [Example 138, 5-chloro-N-(3-((2-(cyclopropylamino)pyrimidin-5-yl)ethynyl)-2,4-difluorophenyl)-3-(hydroxymethyl)-2-methoxybenzenesulfonamide], the inhibition at 3 µM in assay [1] (Table 3-2) worked out at 99%. The same compound displayed an inhibition at 0.1 µM in assay [2] (Table 4-2) of 87%.
For the compound `COc1c(CO)cc(Cl)cc1S(=O)(=O)Nc1ccc(F)c(C#Cc2cnc(NC3COC3)nc2)c1F` [Example 140, 5-chloro-N-(2,4-difluoro-3-((2-(oxetan-3-ylamino)pyrimidin-5-yl)ethynyl)phenyl)-3-(hydroxymethyl)-2-methoxybenzenesulfonamide], in assay [1] (Table 3-2), the inhibition at 3 µM amounted to 99%. In assay [2] (Table 4-2), the inhibition at 0.1 µM came to 76%.
Regarding `COc1c(CO)cc(Cl)cc1S(=O)(=O)Nc1ccc(F)c(C#Cc2cnc(NC3CCOC3)nc2)c1F` (centres unmarked) [Example 141, 5-chloro-N-(2,4-difluoro-3-((2-(tetrahydrofuran-3-ylamino)pyrimidin-5-yl)ethynyl)phenyl)-3-(hydroxymethyl)-2-methoxybenzenesulfonamide], the inhibition at 3 µM in assay [1] (Table 3-2) is 99%. In addition, the inhibition at 0.1 µM in assay [2] (Table 4-2) came to 75%.
As to `COc1c(CO)cc(Cl)cc1S(=O)(=O)Nc1ccc(F)c(C#Cc2cnc(NCC3CCOC3)nc2)c1F` (centres unmarked) [Example 145, 5-chloro-N-(2,4-difluoro-3-((2-((tetrahydrofuran-3-ylmethyl)amino)pyrimidin-5-yl)ethynyl)phenyl)-3-(hydroxymethyl)-2-methoxybenzenesulfonamide], the inhibition at 3 µM in assay [1] (Table 3-2) was 99%. The inhibition at 0.1 µM in assay [2] (Table 4-2) came to 69%.
As for `COc1c(CO)cc(Cl)cc1S(=O)(=O)Nc1ccc(F)c(C#Cc2cnc(NCCO)nc2)c1F` [Example 149, 5-chloro-N-(2,4-difluoro-3-((2-((2-hydroxyethyl)amino)pyrimidin-5-yl)ethynyl)phenyl)-3-(hydroxymethyl)-2-methoxybenzenesulfonamide], the inhibition at 3 µM in assay [1] (Table 3-2) stood at 99%. The same compound gave an inhibition at 0.1 µM in assay [2] (Table 4-2) of 70%.
`COc1c(CO)cc(Cl)cc1S(=O)(=O)Nc1ccc(F)c(C#Cc2cnc(N[C@H](C)CO)nc2)c1F` [Example 150, 5-chloro-N-(2,4-difluoro-3-((2-(((2R)-1-hydroxypropan-2-yl)amino)pyrimidin-5-yl)ethynyl)phenyl)-3-(hydroxymethyl)-2-methoxybenzenesulfonamide]: the inhibition at 3 µM in assay [1] (Table 3-2) came out at 99%. In assay [2] (Table 4-2), the inhibition at 0.1 µM turned out to be 77%.
Turning to `COc1c(CO)cc(Cl)cc1S(=O)(=O)Nc1ccc(F)c(C#Cc2cnc(N[C@H]3CC[C@H](O)CC3)nc2)c1F` [Example 153, 5-chloro-N-(2,4-difluoro-3-((2-((trans-4-hydroxycyclohexyl)amino)pyrimidin-5-yl)ethynyl)phenyl)-3-(hydroxymethyl)-2-methoxybenzenesulfonamide], the inhibition at 3 µM in assay [1] (Table 3-2) came to 99%. Besides, the inhibition at 0.1 µM in assay [2] (Table 4-2) amounted to 78%.
The corresponding values for `Cc1ncc(Cl)cc1S(=O)(=O)Nc1ccc(F)c(C#Cc2cnc(N)nn2)c1F` [Example 158, N-(3-((3-amino-1,2,4-triazin-6-yl)ethynyl)-2,4-difluorophenyl)-5-chloro-2-methylpyridine-3-sulfonamide] are 99% and 43%.
The corresponding values for `Nc1ncc(C#Cc2c(F)ccc(NS(=O)(=O)c3cc(Cl)cc4c3OCC4O)c2F)cn1` (centres unmarked) [Example 159, N-(3-((2-aminopyrimidin-5-yl)ethynyl)-2,4-difluorophenyl)-5-chloro-3-hydroxy-2,3-dihydro-1-benzofuran-7-sulfonamide] are 99% and 60%.
Turning to `Nc1ncc(C#Cc2c(F)ccc(NS(=O)(=O)c3cc(Cl)cnc3OC(F)F)c2F)cn1` [Example 162, N-(3-((2-aminopyrimidin-5-yl)ethynyl)-2,4-difluorophenyl)-5-chloro-2-(difluoromethoxy)pyridine-3-sulfonamide], in assay [1] (Table 3-2), the inhibition at 3 µM was 99%. For the same compound, the inhibition at 0.1 µM in assay [2] (Table 4-2) is 35%.
As to `Cc1ncc(Cl)cc1S(=O)(=O)Nc1ccc(F)c(C#Cc2cnc(Nc3cnn(C)c3)nc2)c1F` [Example 163, 5-chloro-N-(2,4-difluoro-3-((2-((1-methyl-1H-pyrazol-4-yl)amino)pyrimidin-5-yl)ethynyl)phenyl)-2-methylpyridine-3-sulfonamide], the inhibition at 3 µM in assay [1] (Table 3-2) turned out to be 100%. For the same compound, the inhibition at 0.1 µM in assay [2] (Table 4-2) was found to be 88%.
